Measurements published in paper PMC6158019 (Cancer cell, 2018).
Like-named read-outs stand apart in the source and are kept apart here.

Key:
[1] = tested on: RMS cell lines and primary cultures of O-PDX cells; assay: General drug screening; assay type: cell-based, human; conditions: for in vitro activity in RMS O-PDX drug screening: primary cultures of RMS O-PDXs and cell lines
[2] = tested on: RMS cell lines (RD cells); assay: Cell cycle; assay type: cell-based, human; conditions: 1 μM AZD1775, 24 or 48 hr
[3] = tested on: RMS orthotopic xenografts SJRHB000026_X1, SJRHB012_Y, SJRHB013757_X2, SJRHB013759_X1; assay type: in vivo, mouse; conditions: single-agent groups
[4] = mouse, in vivo
[5] = abemaciclib, mice; ref Raub et al., 2015; cited from earlier work
[6] = ref Patnaik et al., 2016, cited from earlier work
[7] = Abemaciclib plasma and tumor PK in tumor-bearing mice; conditions: female, athymic nude, mouse, po, 50 mg/kg
RMS O-PDXs = conditions: previous preclinical phase 2 studies; ref Stewart et al., 2017; cited from earlier work
[8] = Ganetespib plasma and tumor PK in tumor-bearing mice; assay type: in vivo, mouse; conditions: for half-life: female, athymic nude, mouse, iv, 150 mg/kg
[9] = ref Goldman et al., 2013, cited from earlier work
[10] = species not stated; cited from earlier work
[11] = Preclinical phase 1 tolerability study; conditions: GSP 10 mg/kg, AZD1775 60 mg/kg twice daily, in combination regimens
in vivo [12] = conditions: female, athymic nude
[13] = Palbociclib human plasma PK; assay type: in vivo; conditions: patients, 125 mg PO QD, standard calculations
[14] = mice, ref Parrish et al., 2015; cited from earlier work
[15] = ref palbociclib FDA NDA reviews, cited from earlier work
[16] = Trametinib human plasma PK; assay type: in vivo; conditions: patients, standard calculations
in vivo [17] = conditions: female, athymic nude, mouse, po, 0.1 mg/kg
[18] = cited from earlier work; for mean plasma CL/F: population PK

With `C=CCn1c(=O)c2cnc(Nc3ccc(N4CCN(C)CC4)cc3)nc2n1-c1cccc(C(C)(C)O)n1` [AZD1775] the “in vitro activity in RMS O-PDX drug screening” value [1] was “significant in vitro activity”, the “cell cycle and nuclear effects” value [2] was “G2/M phase arrest, mitotic catastrophe, and nuclear fragmentation” and the “overall survival compared with placebo” value [3] was “not different from placebo”.

For `CCN1CCN(Cc2ccc(Nc3ncc(F)c(-c4cc(F)c5nc(C)n(C(C)C)c5c4)n3)nc2)CC1` [abemaciclib], the “rounded and recommended MED” value ([4]; female, athymic nude) was 7.5-15 mg/kg PO BID, the “plasma AUC lower than that reported by Tate” value ([4]; female, athymic nude, po, 50 mg/kg) was ~ 3.8 fold and the “murine equivalent dose (MED) providing a similar total plasma AUC” value [4] was 14.4 mg/kg. For the same compound, the “mean in vitro fraction unbound in the plasma (Fu,p)” value [5] was 0.054, the “geometric mean total plasma AUCtau at steady state” value ([6]; 200 mg PO BID) was 3000 ng·h/mL and the “geometric mean trough concentration” value ([6]; 200 mg PO BID) was 197 ng/mL. The “maximum tolerated dose (MTD)” value ([6]; Phase 1, single agent, continuous) was 200 mg PO BID, the half-life ([7]; plasma) was 5.2 h and the half-life ([7]; tumor) was 5.98 h.

For `CC(C)C[C@H](NC(=O)[C@H](Cc1ccccc1)NC(=O)c1cnccn1)B(O)O` [bortezomib], the efficacy in vivo (RMS O-PDXs) is listed as “failed to show efficacy in vivo”.

In the case of `CC(C)c1cc(-c2n[nH]c(=O)n2-c2ccc3c(ccn3C)c2)c(O)cc1O` [ganetespib], the “sensitivity of RMS cells relative to other pediatric solid tumors” value ([1]; RMS cell lines and primary cultures of O-PDX cells) was “more sensitive”, the “in vitro activity in RMS O-PDX drug screening” value [1] was “significant in vitro activity” and the “overall survival compared with placebo” value [3] was “not different from placebo”. For the same compound, the “increase in plasma Cmax for a 3-fold increase in dose” value ([8]; 50 to 150 mg/kg IV, 10 min after injection, data not shown) was roughly 17 fold, the half-life ([8]; plasma) was 2.03 h and the half-life ([8]; tumor) was 8.42 h. For the same compound, the “murine equivalent dose (MED) providing a similar total plasma AUCinf” value ([8]; vs human 200 mg/m^2) was 12.8 mg/kg, the “recommended Phase 2 dose (RP2D)” value ([9]; IV once weekly for 3 weeks of a 4-week cycle) was 200 mg/m^2 and the “estimated human total plasma AUCinf” value ([9]; at 200 mg/m^2) was “approximately 7000 hr-ng/mL”. For the same compound, the major adverse events ([9]; patients) was “diarrhea and fatigue”, the plasma protein binding [10] was “high” and the tolerability [11] was “well tolerated in all groups”.

For `CC(=O)c1c(C)c2cnc(Nc3ccc(N4CCNCC4)cn3)nc2n(C2CCCC2)c1=O` [palbociclib], the “back-estimated mouse plasma Cavg” value (in vivo [12]; 10 mg/kg) was 76.9 ng/mL, the “murine equivalent dose (MED)” value (in vivo [12]; mouse) was 10 mg/kg and the CL/F (in vivo [12]; mouse, po, 16 mg/kg) was 91.2 mL/min/kg. The Kp (in vivo [12]; mouse, po, 16 mg/kg) was roughly 6, the half-life (in vivo [12]; mouse, po, 16 mg/kg) was 2.61 h and the “estimated total plasma Cavg,ss” value [13] was “about 85 ng/mL”. For the same compound, the “apparent terminal half-life (T1/2), literature” value [14] was “approximately 3.4 hr”, the “estimated total plasma AUCtau at steady state” value ([15]; patients, 125 mg PO QD) was 2080 ng·h/mL and the “mean plasma CL/F” value ([15]; typical patient, population PK) was 60.2 L/h.

For `Cc1[nH]c2ccccc2c1CCNCc1ccc(/C=C/C(=O)NO)cc1` [panobinostat], the efficacy in vivo (RMS O-PDXs) is given as “failed to show efficacy in vivo”.

In the case of `CC(=O)Nc1cccc(-n2c(=O)n(C3CC3)c(=O)c3c(Nc4ccc(I)cc4F)n(C)c(=O)c(C)c32)c1` [trametinib], the “estimated total plasma Cavg,ss” value [16] is listed as “about 15.1 ng/mL”, the Kp (in vivo [17]) is listed as 5.49 and the “mean AUC” value ([18]; across genders, 2 mg PO QD, ref Ouellet et al., 2016) is listed as 365 ng·h/mL. The “maximum tolerated dose (MTD)” value ([18]; putative single agent) was 2 mg PO QD, the “mean plasma CL/F” value ([18]; typical female patient, ref Ouellet et al., 2016) was 4.91 L/h and the “mean plasma CL/F” value ([18]; typical male patient, ref Ouellet et al., 2016) was 6.19 L/h.
